According to patent US5369096A, “Glycolipid derivatives” (The Nisshin Oil Mills, Ltd., priority 1992, dated 1994):

What was measured:
Assay type in all cases: cell-based
[1] = tested on: HL-60 cancer cells adhering to vascular endothelial cells of the normal human umbilical cord; experiment: inhibition of adhesion of HL-60 cancer cells to rhIL1β-stimulated vascular endothelial cells, oily emulsion; conditions: 20 μg/ml equivalent; for Amount of HL-60 cancer cells adhered (fluorescence intensity): rhIL1β 200 U/ml, 485 nm/535 nm
Experimental: (§1) A mixed solution of 6 mg of egg yolk lecithin (manufactured by Nacalaitesque Inc.), 30 μl of soybean oil J. P. (manufactured by Yoshida Seiyaku), 470 μl of distilled water for injection (manufacturedby Otsuka Seiyaku) and 125 μg of a compound of the invention was ultrasonicated (an output of 90 watts) for 10 min. to prepare an oily emulsion. The oily emulsion was further passed through a polycarbonate membrane filter having 0.2 μm average pore diameter (manufactured by Millipore) to provide an average particle size of 0.2 μm.
Vascular endothelial cells of the normal human umbilical cord grown to confluence were stimulated in 24-well plates with 200 U/ml of rhIL1β at 37° C. for 4 hours. After removal of the supernatant by suction, oily emulsions each prepared from a compound of the invention in an amount of 20 μg/ml equivalent were added except for the rhIL1β-untreated group (sample 1) and the treated groups (samples 2 and 3). The mixtures were then allowed to react at room temperature for 30 min. Subsequently, promyelocytic leukemia cell line HL-60 with 2',7'-bis(carboxyethyl)-5,6-carboxyfluorescene acetoxymethyl ester fluorescent dye enclosed was added at a level of 1×10^6 cells per well followed by centrifugal operation at 100 rpm for 20 min. Each well was washed three times followed by addition of 0.5 ml of 0.5% Triton X-100 and stirring. The contents were divided into 100 μl portions in 96-well plates and measurement was made on a Baxter fluorometer at 485 nm/535 nm.
4: rhIL1β-treated group+2→3 sialyl Lewis X (natural type)-containing oily emulsion dispersion-treated group
5: rhlL1β-treated group+compound 5E-containing oily emulsion dispersion-treated group (OEG)
(§2) 6: rhIL1β-treated group+compound 5A-containing oily emulsion dispersion-treated group (2EG)
(§3) 7: rhIL1β-treated group+compound 5B-containing oily emulsion dispersion-treated group (3EG)
(§4) 8: rhIL1β-treated group+compound 5C-containing oily emulsion dispersion-treated group (4EG)
(§5) 9: rhIL1β-treated group+compound 5D-containing oily emulsion dispersion-treated group (5EG)
(§6) % inhibition of adhesion=100-[(fluorescence intensity for rhIL1β-treated group+compound-free or a compound-containing oily emulsion dispersion-treated group)-(fluorescence intensity for rhIL1β-untreated group)/(fluorescence intensity for rhIL1β-treated group-fluorescence intensity for rhIL1β-untreatedgroup)]×100

[2] = tested on: human normal lymphocytes adhering to vascular endothelial cells of the normal human umbilical cord; experiment: inhibition of adhesion of human normal lymphocytes to rhIL1β-stimulated vascular endothelial cells, oily emulsion; conditions: 20 μg/ml equivalent; for Amount adhered (fluorescence intensity): rhIL1β 200 U/ml, 485 nm/535 nm
Experimental: as §1
Vascular endothelial cells of the normal human umbilical cord grown to confluence were stimulated in 24-well plates with 200 U/ml of rhIL1ββat 37° C. for 4 hours. After removal of the supernatant by suction, oily emulsions each prepared from a compound of the invention in an amount of 20 μg/ml equivalent were added except for the rhIL1β-untreated (Sample 1) and treated groups (Samples 2 and 3). The mixtures were then allowed to react at room temperature for 30 min. Subsequently, human normal lymphocytes with 2',7'-bis(carboxyethyl)-5,6-carboxyfluorescence acetoxymethyl ester fluorescent dye enclosed was added at a level of 2×10^6 cells per well followed by centrifugal operation at 100 rpm for 20 min. Each well was washed three times followed by addition of 0.5 ml of 0.5% Triton X-100 and stirring. The contents were divided into 100 μl portions in 96-well plates and measurement was made on a Baxter fluorometer at 485 nm/535 nm.
4: rhIL1β-treated group+2→3 sialyl Lewis X-containing oily emulsion dispersion-treated group
5: rhIL1β-treated group+compound 5E-containing oily emulsion dispersion-treated group (OEG)
as §2, §3, §4, §5
Amount adhered and percent inhibition of adhesion of human normal lymphocytes as measured from fluorescence intensity are shown in Table 5 below.

[3] = tested on: Colo 201 cancer cells adhering to vascular endothelial cells of the normal human umbilical cord; experiment: inhibition of adhesion of Colo 201 cancer cells to rhIL1β-stimulated vascular endothelial cells, liposome dispersion; conditions: 11.8 μM equivalent; for Amount of Colo 201 cells adhered (fluorescence intensity): rhIL1β 200 U/ml, 485 nm
Experimental: A solution of 200 μg of phosphatidylcholine, 100 μg of cholesterol, 7.5 μg of dicetyl phosphate and 50 μg of a compound of the invention in a mixture of chloroform/methanol=2/1 (ca. 1 ml) was evaporated under reduced pressure to dryness followed by addition of 0.25 ml of a phosphate-buffered saline solution. The mixture was ultrasonicated (an output of 90 watts) for 5 min. and stirred (a vortex mixer) for 5 min. to form a liposome dispersion.
as §6, with “Inhibition” for “inhibition”, “liposome” for “oily emulsion”
Vascular endothelial cells of the normal human umbilical cord grown to confluence were stimulated in 24-well plates with 200 U/ml of rhIL1β at 37° C. for 4 hours. After removal of the supernatant by suction liposome dispersions each prepared from 2→3 sialyl Le^x or a compound of the invention in an amount of 11.8 μM equivalent were added except for the rhIL1β-untreated and treated groups. The mixtures were then allowed to react at room temperature for 30 min. Subsequently, colon carcinoma cell line Colo 201 with 2',7'-bis-(carboxyethyl)-5,6-carboxyfluorescene acetoxymethyl ester fluorescent dye enclosed was added at a level of 1×10^6 cells per well followed by centrifugal operation at 100 rpm for 20 min. Each well was washed three times followed by addition of 0.5 ml of 0.5% Triton X-100 and stirring. The contents were divided into 100 μl portions in 96-well plates and measurement was made on a Baxter fluorometer at 485 nm.
4: rhIL1β-treated group+2→3 sialyl Le^x -containing liposome dispersion-treated group
5: rhIL1β-treated group+compound 5E-containing liposome dispersion-treated group (OEG)*
6: rhIL1β-treated group+compound 5A-containing liposome dispersion-treated group (2EG)
7: rhIL1β-treated group+compound 5B-containing liposome dispersion-treated group (3EG)
8: rhIL1β-treated group+compound 5C-containing liposome dispersion-treated group (4EG)
9: rhIL1β-treated group+compound 5D-containing liposome dispersion-treated group (5EG)
* OEG represents a control compound containing no CH2 CH2 O unit. The same shall apply hereinafter.
Amount adhered and % inhibition of adhesion of Colo 201 cancer cells as measured from fluorescence intensity are shown in Table 2 below.

SMILES	Amount of HL-60 cancer cells adhered (fluorescence intensity) [1]	Amount adhered (fluorescence intensity) [2]	Amount of Colo 201 cells adhered (fluorescence intensity) [3]	% Inhibition of adhesion ([1]; HL-60 cells) [%]	% Inhibition of adhesion [2] [%]	% Inhibition of adhesion ([3]; Colo 201 cells) [%]
CCCCCCCCCCCCC/C=C/[C@@H](O)[C@H](CO[C@@H]1O[C@H](CO)[C@@H](O[C@@H]2O[C@H](CO)[C@H](O)[C@H](O[C@@H]3O[C@H](CO)[C@@H](O[C@@H]4O[C@H](CO)[C@H](O)[C@H](O[C@]5(C(=O)O)C[C@H](O)[C@@H](NC(C)=O)[C@H]([C@H](O)[C@H](O)CO)O5)[C@H]4O)[C@H](O[C@@H]4O[C@@H](C)[C@@H](O)[C@@H](O)[C@@H]4O)[C@H]3NC(C)=O)[C@H]2O)[C@H](O)[C@H]1O)NC(=O)CCCCCCCCCCCCCCCCC [2→3 sialyl Le^x, reference compound]	16869	9320	448512	–	–	–
CCCCCCCCCCCCCCC(CCCCCCCCCCCCCC)C(=O)Nc1ccc(CO[C@@H]2O[C@H](CO)[C@@H](O[C@@H]3O[C@H](CO)[C@H](O)[C@H](O[C@]4(C(=O)O)C[C@H](O)[C@@H](NC(C)=O)[C@H]([C@H](O)[C@H](O)CO)O4)[C@H]3O)[C@H](O[C@@H]3O[C@@H](C)[C@@H](O)[C@@H](O)[C@@H]3O)[C@H]2O)cc1 [Compound 5E, para-(2-tetradecylhexadecanoyl)-aminobenzyl-O-(5-acetamido-3,5-dideoxy-D-glycero-α-D-galacto-2-nonulopyranosylonic acid)-(2→3)-O-β-galactopyranosyl-(1→4)-[O-α-L-fucopyranosyl-(1→3)-β-D-glucopyranoside], reference compound]	24307	14781	595253	35.6	46.6	9.68
